# According to patent publication US20260262643A1, “HERBICIDAL BENZOXAZINES” (FMC CORPORATION, priority 2022, published 2026):
# Key:
# [1] = tested on: barnyardgrass; test: Test D flooded paddy test; assay type: in vivo, Echinochloa crus-galli; conditions: 250 g ai/ha, applied to paddy water, visual rating after 13 to 14 days, scale 0 to 100 (0 no effect, 100 complete control)
# Procedure, shortened: (§1)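 Plants at the 2-leaf stage were grown in pots flooded to 3 cm, and compound was applied directly into the paddy water, with depth kept throughout. After 13–14 days in a greenhouse, injury was rated visually against untreated controls on a 0–100 scale (100 = complete control); a dash means not tested.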
# [2] = tested on: blackgrass; test: Test C preemergence; assay type: in vivo, Alopecurus myosuroides; conditions: 0 to 100 scale (0 no effect, 100 complete control); for Plant response rating, Blackgrass: Preemergence, 500 g ai/ha, visual rating after 10 days; for Blackgrass plant response rating: Test C, preemergence, 125 g ai/ha
# Procedure, shortened: (§2)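 Test material, in non-phytotoxic solvent with surfactant, was sprayed on the soil directly after seeding (preemergence) or on young plants of 2–10 cm with one to two leaves (postemergence). Greenhouse, 10 days; 0–100 visual control scale.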
# [3] = tested on: pigweed, palmer; test: Test C postemergence; assay type: in vivo, Amaranthus palmeri; conditions: 10 days
# Procedure, shortened: as §2
# [4] = tested on: wheat; test: Test C postemergence; assay type: in vivo, Triticum aestivum; conditions: 10 days
# Procedure, shortened: as §2
# [5] = tested on: corn; test: Test C postemergence; assay type: in vivo, Zea mays; conditions: 10 days
# Procedure, shortened: as §2
# [6] = tested on: oat, wild; test: Test C postemergence; assay type: in vivo, Avena fatua; conditions: 10 days
# Procedure, shortened: as §2
# [7] = tested on: rice; test: Test D flooded paddy test; assay type: in vivo, Oryza sativa; conditions: 250 g ai/ha, applied to paddy water, visual rating after 13 to 14 days, scale 0 to 100 (0 no effect, 100 complete control)
# Procedure, shortened: as §1
# [8] = tested on: kochia; test: Test C preemergence; assay type: in vivo, Bassia scoparia; conditions: 0 to 100 scale (0 no effect, 100 complete control); for Kochia plant response rating: preemergence
# Procedure, shortened: as §2
# [9] = tested on: corn; test: Test C preemergence; assay type: in vivo, Zea mays; conditions: 0 to 100 scale (0 no effect, 100 complete control); for Corn plant response rating: preemergence
# Procedure, shortened: as §2
# [10] = tested on: wheat; test: Test C preemergence; assay type: in vivo, Triticum aestivum; conditions: 0 to 100 scale (0 no effect, 100 complete control); for Wheat plant response rating: preemergence
# Procedure, shortened: as §2
# [11] = tested on: ryegrass, Italian; test: Test C postemergence; assay type: in vivo, Lolium multiflorum; conditions: 10 days
# Procedure, shortened: as §2
# [12] = tested on: green foxtail; test: Test C preemergence; assay type: in vivo, Setaria viridis; conditions: 0 to 100 scale (0 no effect, 100 complete control); for Foxtail, Green plant response rating: preemergence
# Procedure, shortened: as §2
# [13] = tested on: ragweed; test: Test C preemergence; assay type: in vivo, Ambrosia artemisiifolia; conditions: 0 to 100 scale (0 no effect, 100 complete control); for Ragweed plant response rating: preemergence
# Procedure, shortened: as §2
# [14] = tested on: soybean; test: Test C postemergence; assay type: in vivo, Glycine max; conditions: 10 days
# Procedure, shortened: as §2
# [15] = tested on: pigweed, palmer; test: Test C preemergence; assay type: in vivo, Amaranthus palmeri; conditions: 0 to 100 scale (0 no effect, 100 complete control); for Pigweed, Palmer plant response rating: preemergence
# Procedure, shortened: as §2
# [16] = tested on: kochia; test: Test C postemergence; assay type: in vivo, Bassia scoparia; conditions: 10 days
# Procedure, shortened: as §2
# [17] = tested on: ragweed; test: Test C postemergence; assay type: in vivo, Ambrosia artemisiifolia; conditions: 10 days
# Procedure, shortened: as §2
# [18] = tested on: barnyardgrass; test: Test C postemergence; assay type: in vivo, Echinochloa crusgalli; conditions: 10 days
# Procedure, shortened: as §2
# [19] = tested on: soybean; test: Test C preemergence; assay type: in vivo, Glycine max; conditions: 0 to 100 scale (0 no effect, 100 complete control); for Soybean plant response rating: preemergence
# Procedure, shortened: as §2
# [20] = tested on: green foxtail; test: Test C postemergence; assay type: in vivo, Setaria viridis; conditions: 10 days
# Procedure, shortened: as §2
# [21] = tested on: ryegrass, Italian; test: Test C preemergence; assay type: in vivo, Lolium multiflorum; conditions: 0 to 100 scale (0 no effect, 100 complete control); for Ryegrass, Italian plant response rating: preemergence
# Procedure, shortened: as §2
# [22] = tested on: sedge, umbrella; test: Test D flooded paddy test; assay type: in vivo, Cyperus difformis; conditions: 250 g ai/ha, applied to paddy water, visual rating after 13 to 14 days, scale 0 to 100 (0 no effect, 100 complete control)
# Procedure, shortened: as §1
# [23] = tested on: oat, wild; test: Test C preemergence; assay type: in vivo, Avena fatua; conditions: 0 to 100 scale (0 no effect, 100 complete control); for Oat, Wild plant response rating: preemergence
# Procedure, shortened: as §2
# [24] = tested on: barnyardgrass; test: Test C preemergence; assay type: in vivo, Echinochloa crusgalli; conditions: 0 to 100 scale (0 no effect, 100 complete control); for Plant response rating, Barnyardgrass: Preemergence, 500 g ai/ha, visual rating after 10 days; for Barnyardgrass plant response rating: preemergence, 125 g ai/ha
# Procedure, shortened: as §2
# [25] = tested on: horseweed; test: Test C postemergence; assay type: in vivo, Erigeron canadensis; conditions: 10 days
# Procedure, shortened: as §2
# [26] = tested on: blackgrass; test: Test C postemergence; assay type: in vivo, Alopecurus myosuroides; conditions: 10 days
# Procedure, shortened: as §2
# [27] = tested on: ducksalad; test: Test D flooded paddy test; assay type: in vivo, Heteranthera limosa; conditions: 250 g ai/ha, applied to paddy water, visual rating after 13 to 14 days, scale 0 to 100 (0 no effect, 100 complete control)
# Procedure, shortened: as §1
# [28] = tested on: galium; test: Test C postemergence; assay type: in vivo, Galium aparine; conditions: 10 days
# Procedure, shortened: as §2
# [29] = 125 g ai/ha, postemergence, 0 to 100 scale, 0 no effect, 100 complete control
# [30] = Postemergence, 500 g ai/ha, visual 0 to 100 scale (0 no effect, 100 complete control)
# [31] = Preemergence, 500 g ai/ha, visual rating after 10 days
structure (smiles),measurement,setting,value
Cc1cccc2c1O[C@@H](C)CN2C(=O)c1cccc(-n2cnc(C(C)(C)O)n2)c1 [Compound 278],"Plant response rating, Barnyardgrass (Flood)",[1],45
same,"Plant response rating, Blackgrass",[2],90
same,Blackgrass plant response rating,[2],90
same,"Plant response rating, Pigweed, Palmer",[3]; [29],50
same,"Plant response rating, Wheat",[4]; [29],70
same,"Plant response rating, Corn",[5]; [29],50
same,"Plant response rating, Corn",[5]; [30],90
same,"Plant response rating, Oat, Wild",[6]; [29],80
same,"Plant response rating, Rice (Flood)",[7],15
same,Kochia plant response rating,[8]; 500 g ai/ha,100
same,Kochia plant response rating,"[8]; Test C, 125 g ai/ha",90
same,Corn plant response rating,[9]; 500 g ai/ha,80
same,Wheat plant response rating,[10]; 500 g ai/ha,100
same,Wheat plant response rating,"[10]; Test C, 125 g ai/ha",50
same,"Plant response rating, Ryegrass, Italian",[11]; [29],80
same,"Foxtail, Green plant response rating",[12]; 500 g ai/ha,100
same,"Foxtail, Green plant response rating","[12]; Test C, 125 g ai/ha",100
same,Ragweed plant response rating,[13]; 500 g ai/ha,80
same,Ragweed plant response rating,"[13]; Test C, 125 g ai/ha",70
same,"Plant response rating, Soybean",[14]; [29],100
same,"Pigweed, Palmer plant response rating",[15]; 500 g ai/ha,100
same,"Pigweed, Palmer plant response rating","[15]; Test C, 125 g ai/ha",100
same,"Plant response rating, Kochia",[16]; [29],80
same,"Plant response rating, Ragweed",[17]; [29],70
same,"Plant response rating, Barnyardgrass",[18]; [29],50
same,"Plant response rating, Barnyardgrass",[18]; [30],90
same,Soybean plant response rating,[19]; 500 g ai/ha,100
same,Soybean plant response rating,"[19]; Test C, 125 g ai/ha",90
same,"Plant response rating, Foxtail, Green",[20]; [29],50
same,"Plant response rating, Foxtail, Green",[20]; [30],90
same,"Ryegrass, Italian plant response rating",[21]; 500 g ai/ha,100
same,"Ryegrass, Italian plant response rating","[21]; Test C, 125 g ai/ha",80
same,"Plant response rating, Sedge, Umbrella (Flood)",[22],100
same,"Oat, Wild plant response rating",[23]; 500 g ai/ha,90
same,"Oat, Wild plant response rating","[23]; Test C, 125 g ai/ha",80
same,"Plant response rating, Barnyardgrass",[24],100
same,Barnyardgrass plant response rating,[24]; Test C,100
same,"Plant response rating, Horseweed",[25]; [29],0
same,"Plant response rating, Horseweed",[25]; [30],50
same,"Plant response rating, Blackgrass",[26]; [29],90
same,"Plant response rating, Blackgrass",[26]; [30],90
same,"Plant response rating, Ducksalad (Flood)",[27],100
same,"Plant response rating, Galium",[28]; [29],100
same,"Plant response rating, Galium",[28]; [30],100
CC(C)c1ncn(-c2cc(OC(F)F)c(OC(F)F)c(C(=O)N3C[C@H](C)Oc4c(Cl)cccc43)c2)n1 [Compound 150],"Plant response rating, Barnyardgrass (Flood)",[1],0
same,"Plant response rating, Blackgrass",[2],0
same,Blackgrass plant response rating,[2],0
same,"Plant response rating, Pigweed, Palmer",[3]; [29],0
same,"Plant response rating, Pigweed, Palmer",[3]; [30],30
same,"Plant response rating, Wheat",[4]; [29],0
same,"Plant response rating, Wheat",[4]; [30],0
same,"Plant response rating, Corn",[5]; [29],0
same,"Plant response rating, Corn",[5]; [30],0
same,"Plant response rating, Oat, Wild",[6]; [29],0
same,"Plant response rating, Oat, Wild",[6]; [30],0
same,"Plant response rating, Rice (Flood)",[7],0
same,"Plant response rating, Kochia",[8]; [31],0
same,Kochia plant response rating,"[8]; Test C, 125 g ai/ha",0
same,"Plant response rating, Corn",[9]; [31],0
same,Corn plant response rating,"[9]; Test C, 125 g ai/ha",0
same,"Plant response rating, Wheat",[10]; [31],0
same,Wheat plant response rating,"[10]; Test C, 125 g ai/ha",0
same,"Plant response rating, Ryegrass, Italian",[11]; [29],0
same,"Plant response rating, Ryegrass, Italian",[11]; [30],0
same,"Plant response rating, Foxtail, Green",[12]; [31],0
same,"Foxtail, Green plant response rating","[12]; Test C, 125 g ai/ha",0
same,"Plant response rating, Ragweed",[13]; [31],20
same,Ragweed plant response rating,"[13]; Test C, 125 g ai/ha",0
same,"Plant response rating, Soybean",[14]; [29],20
same,"Plant response rating, Soybean",[14]; [30],50
same,"Plant response rating, Pigweed, Palmer",[15]; [31],0
same,"Pigweed, Palmer plant response rating","[15]; Test C, 125 g ai/ha",0
same,"Plant response rating, Kochia",[16]; [29],0
same,"Plant response rating, Kochia",[16]; [30],20
same,"Plant response rating, Ragweed",[17]; [29],0
same,"Plant response rating, Ragweed",[17]; [30],0
same,"Plant response rating, Barnyardgrass",[18]; [29],10
same,"Plant response rating, Barnyardgrass",[18]; [30],10
same,"Plant response rating, Soybean",[19]; [31],0
same,Soybean plant response rating,"[19]; Test C, 125 g ai/ha",0
same,"Plant response rating, Foxtail, Green",[20]; [29],0
same,"Plant response rating, Foxtail, Green",[20]; [30],0
same,"Plant response rating, Ryegrass, Italian",[21]; [31],0
same,"Ryegrass, Italian plant response rating","[21]; Test C, 125 g ai/ha",0
same,"Plant response rating, Sedge, Umbrella (Flood)",[22],0
same,"Plant response rating, Oat, Wild",[23]; [31],0
same,"Oat, Wild plant response rating","[23]; Test C, 125 g ai/ha",0
same,Barnyardgrass plant response rating,[24],0
same,"Plant response rating, Barnyardgrass",[24],0
same,"Plant response rating, Horseweed",[25]; [29],0
same,"Plant response rating, Horseweed",[25]; [30],0
same,"Plant response rating, Blackgrass",[26]; [29],0
same,"Plant response rating, Blackgrass",[26]; [30],0
same,"Plant response rating, Ducksalad (Flood)",[27],0
same,"Plant response rating, Galium",[28]; [29],0
same,"Plant response rating, Galium",[28]; [30],0
